{
  "source": "patent EP3294317B1",
  "about": "“ENHANCED ANTIBIOTIC COMPOSITION” (Universitat Autònoma de Barcelona, priority 2015, dated 2016)",
  "key": {"[1]": {"system": "Escherichia coli ATCC 25922", "test": "Colistin broth microdilution MIC with potentiator compounds (Example 1)", "type": "cell-based", "details": "E. coli ATCC 25922; MIC in the presence of 1.0% DMSO / MIC in the presence of 0.1 mM potentiator compound and 1.0% DMSO; positive = increased, negative = decreased susceptibility, 1 = no effect"}, "[2]": {"system": "Salmonella enterica subsp. enterica ATCC 14028", "test": "Colistin broth microdilution MIC with potentiator compounds (Example 1)", "type": "cell-based", "details": "S. enterica ATCC 14028; MIC in the presence of 1.0% DMSO / MIC in the presence of 0.1 mM potentiator compound and 1.0% DMSO; positive = increased, negative = decreased susceptibility, 1 = no effect"}, "[3]": {"system": "Acinetobacter baumannii ATCC 15308", "test": "Colistin broth microdilution MIC with potentiator compounds (Example 1)", "type": "cell-based", "details": "A. baumannii ATCC 15308; MIC in the presence of 1.0% DMSO / MIC in the presence of 0.1 mM potentiator compound and 1.0% DMSO; positive = increased, negative = decreased susceptibility, 1 = no effect"}, "[4]": {"system": "Pseudomonas aeruginosa PAO1", "test": "Colistin broth microdilution MIC with potentiator compounds (Example 1)", "type": "cell-based", "details": "P. aeruginosa PAO1; MIC in the presence of 1.0% DMSO / MIC in the presence of 0.1 mM potentiator compound and 1.0% DMSO; positive = increased, negative = decreased susceptibility, 1 = no effect"}, "[5]": {"system": "Stenotrophomonas maltophilia ATCC 13637", "test": "Colistin broth microdilution MIC with potentiator compounds (Example 1)", "type": "cell-based", "details": "S. maltophilia ATCC 13637; MIC in the presence of 1.0% DMSO / MIC in the presence of 0.1 mM potentiator compound and 1.0% DMSO; positive = increased, negative = decreased susceptibility, 1 = no effect"}, "[6]": {"system": "A. baumannii ATCC 15308", "test": "Broth microdilution MIC of other antibiotics with potentiator compounds (Example 2)", "type": "cell-based, Acinetobacter baumannii", "experimental": "(§1) Following the procedure of Example 1, ciprofloxacin, amikacin, levofloxacin, tigecycline, imipenem and the combination trimethoprim/sulfamethoxasole (1:19) were tested. All were purchased from Sigma-Aldrich Co.\n(§2) Minimal inhibitory concentration (MIC) of the antibiotic or the test combinations were determined by the broth microdilution method.\n(§3) Antibiotic stock solutions were prepared according to CLSI recommendations and sterilizing by passage through 0.20 µm filters.\n(§4) Antimicrobial susceptibility testing of these isolates was performed using the broth microdilution (BMD) method, according to CLSI guidelines.\n(§5) The fold increase in bacterial susceptibility to antibiotics when combined with the potentiator compound (expressed as MIC in the presence of 1.0% DMSO / MIC in the presence of 0.1 mM of each potentiator compound and 1.0% DMSO) are shown in Table 4: […]"}, "[7]": {"system": "P. aeruginosa ATCC 27853", "test": "Broth microdilution MIC of other antibiotics with potentiator compounds (Example 2)", "type": "cell-based, Pseudomonas aeruginosa", "details": "any of ciprofloxacin, amikacin, levofloxacin, tigecycline, imipenem, TMP/SMX (1:19), 0.1 mM potentiator, 1.0% DMSO, 'none' = no antibiotic potentiated", "experimental": "as §1, §2, §3, §4, §5"}, "[8]": {"system": "S. maltophilia 197", "test": "Colistin broth microdilution MIC with potentiator compounds, resistant clinical isolates (Example 3)", "type": "cell-based, Stenotrophomonas maltophilia", "experimental": "(§6) The potentiator effect of the compound of the invention and other compounds disclosed herein was tested using colistin sulfate as antibiotic and in combination with the enhancer compounds in front of resistant clinical isolates.\n(§7) Tests were performed to determine the potentiator effect of the compound of the invention and other compounds disclosed herein with multidrug-resistant S. maltophilia and A. baumannii clinical strains as shown in Table 5: TABLE 5\n(§8) For this experiment the potentiator compound was added to a colistin broth microdilution assay at a final concentration of 0.1mM. MICs were determined as described in the Example 1.\nas §5, with “Colistin minimal inhibitory concentration (MIC), expressed in µg/mL, and the” for “The”, “colistin” for “antibiotics”, “6:” for “4:”"}, "[9]": {"system": "S. maltophilia 257", "test": "Colistin broth microdilution MIC with potentiator compounds, resistant clinical isolates (Example 3)", "type": "cell-based, Stenotrophomonas maltophilia", "details": "MIC in the presence of 1.0% DMSO / MIC in the presence of 0.1 mM compound and 1.0% DMSO, positive = increased susceptibility, 1 = no effect", "experimental": "as §6, §7, §8\nas §5, with “Colistin minimal inhibitory concentration (MIC), expressed in µg/mL, and the” for “The”, “colistin” for “antibiotics”, “6:” for “4:”"}, "[10]": {"system": "S. maltophilia 53149", "test": "Colistin broth microdilution MIC with potentiator compounds, resistant clinical isolates (Example 3)", "type": "cell-based, Stenotrophomonas maltophilia", "details": "MIC in the presence of 1.0% DMSO / MIC in the presence of 0.1 mM compound and 1.0% DMSO, positive = increased susceptibility, 1 = no effect", "experimental": "as §6, §7, §8\nas §5, with “Colistin minimal inhibitory concentration (MIC), expressed in µg/mL, and the” for “The”, “colistin” for “antibiotics”, “6:” for “4:”"}, "[11]": {"system": "S. maltophilia D457", "test": "Colistin broth microdilution MIC with potentiator compounds, resistant clinical isolates (Example 3)", "type": "cell-based, Stenotrophomonas maltophilia", "details": "MIC in the presence of 1.0% DMSO / MIC in the presence of 0.1 mM compound and 1.0% DMSO, positive = increased susceptibility, 1 = no effect", "experimental": "as §6, §7, §8\nas §5, with “Colistin minimal inhibitory concentration (MIC), expressed in µg/mL, and the” for “The”, “colistin” for “antibiotics”, “6:” for “4:”"}, "[12]": {"system": "S. maltophilia M30", "test": "Colistin broth microdilution MIC with potentiator compounds, resistant clinical isolates (Example 3)", "type": "cell-based, Stenotrophomonas maltophilia", "experimental": "as §6, §7, §8\nas §5, with “Colistin minimal inhibitory concentration (MIC), expressed in µg/mL, and the” for “The”, “colistin” for “antibiotics”, “6:” for “4:”"}, "[13]": {"system": "S. aureus Newman", "test": "Broth microdilution MIC of compound of formula I alone (Example 5)", "type": "cell-based", "details": "Staphylococcus aureus, NBRC102137 / NEWMAN, Reference strain, NBRC 102137, read-out: Compound of formula I MIC in the presence of 1.0% DMSO", "experimental": "(§9) The antimicrobial effect of the compound of formula I of the invention was tested in front of specific Gram-positive bacterium, Staphylococcus aureus, an agent usually involved in hospital-acquired infections. For this experiment the S. aureus reference and clinical isolates shown in Table 8 were used, including Methicillin-resistant S. aureus (MRSA): TABLE 8\n(§10) Antimicrobial susceptibility testing of these isolates was performed using the broth microdilution (BMD) method, according to CLSI guidelines (Example 1).\n(§11) Selected compound of formula I was first dissolved in 100% of sterile-filtered dimethyl sulfoxide (DMSO, Sigma, D2438) to 20 mM. 100 µL of bacterial suspension (final OD550nm=0.01) in MHB were added to the compound dilutions in each well (concentration range from 0.2 mM to 3.125 µM), and the final suspension was mixed and incubated without shaking at 37° C for 24 h before developing with 30 µL of a 0.01% aqueous solution of resazurin. For the experiment all bacteria were first grown overnight in CAMHB using CLSI recommended incubation conditions.\n(§12) The compound MIC, expressed in mM, was defined as the lowest concentration of compound at which no visible growth was obtained."}, "[14]": {"system": "S. aureus V8", "test": "Broth microdilution MIC of compound of formula I alone (Example 5)", "type": "cell-based", "details": "Staphylococcus aureus, ATCC49775, Reference strain, ATCC 49775, read-out: Compound of formula I MIC in the presence of 1.0% DMSO", "experimental": "as §9, §10, §11, §12"}, "[15]": {"test": "Solubility of the stock solution in methanol", "type": "physicochemical", "details": "organic solvent or mixture; 100% Methanol; fairly soluble, required vigorous vortex", "experimental": "Selected compound of formula I was first dissolved in 100% of Methanol (HPLC Gradient Grade CHROMASOLV. Sigma, 34885-1L-R) to 10 mM. The compound was fairly soluble in methanol up to 10 mM and required vigorous vortex."}, "[16]": {"details": "MIC in 1.0% DMSO / MIC with 0.1 mM potentiator compound and 1.0% DMSO"}, "[17]": {"details": "MIC in the presence of 1.0% DMSO / MIC in the presence of 0.1 mM compound and 1.0% DMSO, positive = increased susceptibility, 1 = no effect"}},
  "data": [
    {"smiles": "CN(C)CCNC(=O)c1cccc(CNC(=O)Nc2ccc3c(c2)Cc2ccccc2-3)c1", "note": "[I, N-[2-(dimethylamino)ethyl]-3-[(9H-fluoren-2-ylcarbamoylamino)methyl]benzamide]", "values": [
      {"measurement": "Fold increase in bacterial susceptibility to colistin", "setting": "[1]", "result": "+2 fold"},
      {"measurement": "Fold increase in bacterial susceptibility to colistin", "setting": "[2]", "result": "+2 fold"},
      {"measurement": "Fold increase in bacterial susceptibility to colistin", "setting": "[3]", "result": "+4 fold"},
      {"measurement": "Fold increase in bacterial susceptibility to colistin", "setting": "[4]", "result": "+2 fold"},
      {"measurement": "Fold increase in bacterial susceptibility to colistin", "setting": "[5]", "result": "+64 fold"},
      {"measurement": "Fold increase in bacterial susceptibility to Imipenem", "setting": "[6]; [16]", "result": 2, "unit": "fold"},
      {"measurement": "Fold increase in bacterial susceptibility to Levofloxacin", "setting": "[6]; [16]", "result": 4, "unit": "fold"},
      {"measurement": "Fold increase in bacterial susceptibility to Tigecycline", "setting": "[6]; [16]", "result": 2, "unit": "fold"},
      {"measurement": "Fold increase in bacterial susceptibility to TMP/SMX", "setting": "[6]; Trimethoprim:sulfamethoxazole 1:19, MIC in 1.0% DMSO / MIC with 0.1 mM potentiator compound and 1.0% DMSO", "result": 4, "unit": "fold"},
      {"measurement": "Fold increase in bacterial susceptibility to antibiotic indicated", "setting": "[7]", "result": "none"},
      {"measurement": "Colistin susceptibility category according to the CLSI criteria in the presence of the compound", "setting": "[8]; 0.1 mM compound", "result": "become sensitive to colistin"},
      {"measurement": "Fold increase in bacterial susceptibility to colistin", "setting": "[8]; [17]", "result": "+32 fold"},
      {"measurement": "Fold increase in bacterial susceptibility to colistin", "setting": "[9]", "result": "+4 fold"},
      {"measurement": "Fold increase in bacterial susceptibility to colistin", "setting": "[10]", "result": "+4 fold"},
      {"measurement": "Fold increase in bacterial susceptibility to colistin", "setting": "[11]", "result": "+2 fold"},
      {"measurement": "Colistin susceptibility category according to the CLSI criteria in the presence of the compound", "setting": "[12]; 0.1 mM compound", "result": "become sensitive to colistin"},
      {"measurement": "Fold increase in bacterial susceptibility to colistin", "setting": "[12]; [17]", "result": "+8 fold"},
      {"measurement": "MIC", "setting": "[13]", "result": 200, "unit": "µM"},
      {"measurement": "MIC", "setting": "[14]", "result": 200, "unit": "µM"},
      {"measurement": "solubility", "setting": "[15]", "result": "≤ 10000", "unit": "µM"}
    ]}
  ]
}
